The subject of the assay is tetrabenazine-induced sedation and depression in mice. As to the kind of experiment: Antagonism of tetrabenazine-induced depression in mice, orally, at 1 hour post-drug. Type of assay: in vivo, female white mice (Carworth CF1 S). The note with it: Mus musculus. The procedure:
This mouse test is predictive of human antidepressant response (Everett, "The Dopa Response Potentiation Test and Its Use in Screening for Antidepressant Drugs," pp. 164 in "Antidepressant Drugs" (Proceedings of the First International Symposium), S. Garattini and M. N. G. Dukes, eds., 1967).
Groups of 10 Carworth CF1 S female mice, 18-21 g each, were fasted 1.5 hours and were intubated with antagonist compounds at oral doses of 0, 0.33, 1, 3, 9, 27, and 81 mg/kg in 0.20 ml of 1% Methocel-1.25% Tween 80. The mice were challenged 30 minutes later with tetrabenazine (as the methanesulfonate), 32 mg/kg intraperitoneally (dissolved in 0.20 ml 0.05 M KCl at pH 2.0). One hour after antagonist (30 minutes after tetrabenazine), the mice were examined for signs of exploratory activity and ptosis (eyelid closure). Normal exploratory activity (relief from sedation) was recorded when a mouse lifted by the tail from a group of 10 in a testing box and placed on a stainless testing box lid (12.5"×8"with 0.33" mesh) either turned its head horizontally 30° in both directions or moved to the edge of the screen within 10 seconds after being placed on the screen. Relief from ptosis was recorded when exactly two seconds after placing the mouse facing the observer, lid closure was less than 50% in both eyes.

Where [1] appears, read: po, 1 h, read-out: ED50 for prevention of exploratory loss.
[2] abbreviates: po, 1 h, read-out: ED50 for prevention of ptosis.

Read-outs that look alike come from different tables or passages of the source.

Broadly, the ED50 is the dose that gives a 50% effect, or the effect in half of the subjects. As to `CN(C)CCC=C1c2ccccc2CCc2ccccc21` [Amitriptyline, reference compound], the ED50 turned out to be 3.5 mg/kg (oral, 1 hour post-drug (30 min after tetrabenazine 32 mg/kg i.p.), exploratory activity, read-out: ED50 for prevention of exploratory loss) and 1.4 mg/kg (oral, 1 hour post-drug (30 min after tetrabenazine 32 mg/kg i.p.), lid closure less than 50% in both eyes, read-out: ED50 for prevention of ptosis).

With `CN1CCC(O)(c2cccn2C)CC1` [Example 1, 1-Methyl-4-(1-methylpyrrol-2-yl)-4-piperidinol], the ED50 is 1.8 mg/kg under setting [1] and 1.1 mg/kg under setting [2].

With `CN1CC=C(c2cccn2C)CC1.Cl` [Example 2, 1,2,3,6-Tetrahydro-1-methyl-4-(1-methylpyrrol-2-yl)pyridine, hydrochloride salt], the 50% effective dose (ED50) under setting [1] came to 1.4 mg/kg and the ED50 under setting [2] came out at 0.8 mg/kg.

Values taken from patent US4267185A, “Antidepressant pyrrolylpiperidines, their pharmaceutical compositions and method of use” (E. I. Du Pont de Nemours and Company, priority 1980, dated 1981).
